# Experimental data from US20250059131A1, “FLUORINATED CATIONIC LIPIDS FOR USE IN LIPID NANOPARTICLES” (Acuitas Therapeutics, Inc., priority 2021, published 2025).
# Marks after values point to notes of the source that are not given here.
# Legend:
# human IgG in mouse serum = assay: Immunoglobulin G (IgG) mRNA in vivo evaluation using lipid nanoparticle compositions; design: species or system mice; settings: tail vein injection, 24 hours after administration, LNP formulation; for Serum IgG @ 0.3 mg/kg: 0.3 mg mRNA/kg; for Serum IgG @ 1.0 mg/kg: 1.0 mg mRNA/kg
# Procedure: A lipid of structure (I), DSPC, cholesterol and PEG-lipid are solubilized in ethanol at a molar ratio of 50:10:38.5:1.5 or 47.5:10:40.7:1.8. Lipid nanoparticles (LNP) are prepared at a total lipid to mRNA weight ratio of approximately 10:1 to 40:1. Briefly, the mRNA is diluted to 0.2 mg/mL in 10 to 50 mM citrate buffer, pH 4 or 10 to 25 mM acetate buffer, pH 4. Syringe pumps are used to mix the ethanolic lipid solution with the mRNA aqueous solution at a ratio of about 1:5 to 1:3 (vol/vol) with total flow rates above 15 mL/min. The ethanol is then removed and the external buffer replaced with PBS by dialysis. Finally, the lipid nanoparticles are filtered through a 0.2 µm pore sterile filter.
# Studies are performed in 6-8 week old CD-1/ICR mice (Envigo) according to guidelines established by an institutional animal care committee (ACC) and the Canadian Council on Animal Care (CCAC). Varying doses of mRNA-lipid nanoparticle are systemically administered by tail vein injection and animals euthanized at a specific time point (e.g., 24 hours) post-administration. The whole blood is collected, and the serum subsequentially separated by centrifuging the tubes of the whole blood at 2000× g for 10 minutes at 4° C. and stored at −80° C. until use for analysis.
# For immunoglobulin G (IgG) ELISA (Life Diagnostics Human IgG ELISA kit), the serum samples are diluted at 100 to 15000 folds with 1× diluent solution. 100 μL of diluted serum is dispensed into anti-human IgG coated 96-well plate in duplicate alongside human IgG standards and incubated in a plate shaker at 150 rpm at 25° C. for 45 minutes. The wells are washed 5 times with 1× wash solution using a plate washer (400 μL/well). […] The absorbance is read at 450 nm (A450) with a microplate reader. The amount of human IgG in mouse serum is determined by plotting A450 values for the assay standard against human IgG concentration.
# (§1) Representative compounds of the disclosure shown in Table 2 were formulated using the following molar ratio: 50% cationic lipid/10% distearoylphosphatidylcholine (DSPC)/38.5% Cholesterol/1.5% PEG lipid 2-[2-(ω-methoxy(polyethyleneglycol2000)ethoxy]-N,N-ditetradecylacetamide) or 47.5% cationic lipid/10% DSPC/40.7% Cholesterol/1.8% PEG lipid. Relative activity was determined by measuring luciferase expression in the liver 4 hours following administration via tail vein injection as described in Example 1 or by measuring the amount of human IgG in mouse serum as described in example 2. The activity was compared at a dose of 1.0 or 0.5 or 0.3 mg mRNA/kg and expressed as ng luciferase/g liver measured 4 hours after administration, as described in Example 1 or as μg IgG/mL serum measured 24 hours after administration, as described in Example 2. […]
# [1] = system: luciferase expression in the liver; assay: Luciferase mRNA in vivo evaluation using lipid nanoparticle compositions; design: species or system mice; settings: tail vein injection, 4 hours after administration, LNP formulation; for Liver Luc @ 0.5 mg/kg (ng luc/g): 0.5 mg mRNA/kg
# Procedure: Lipid nanoparticles were prepared and tested according to the general procedures described in PCT Pub. Nos. WO 2015/199952 and WO 2017/004143, the full disclosures of which are incorporated herein by reference. Briefly, cationic lipid, DSPC, cholesterol and PEG-lipid were solubilized in ethanol at a molar ratio of about 50:10:38.5:1.5 or about 47.5:10:40.7:1.8. Lipid nanoparticles (LNP) were prepared at a total lipid to mRNA weight ratio of approximately 10:1 to 40:1. The mRNA is diluted to 0.2 mg/mL in 10 to 50 mM citrate or acetate buffer, pH 4. Syringe pumps were used to mix the ethanolic lipid solution with the mRNA aqueous solution at a ratio of about 1:5 to 1:3 (vol/vol) with total flow rates above 15 mL/min. The ethanol was then removed and the external buffer replaced with PBS by dialysis. Finally, the lipid nanoparticles were filtered through a 0.2 µm pore sterile filter. Lipid nanoparticle particle size was approximately 55-95 nm diameter, and in some instances approximately 70-90 nm diameter as determined by quasi-elastic light scattering using a Malvern Zetasizer Nano ZS (Malvern, UK).
# Studies were performed in 6-8 week old female C57BL/6 mice (Charles River) or 8-10 week old CD-1 (Harlan) mice (Charles River) according to guidelines established by an institutional animal care committee (ACC) and the Canadian Council on Animal Care (CCAC). Varying doses of mRNA-lipid nanoparticle were systemically administered by tail vein injection and animals euthanized at a specific time point (e.g., 4 hours) post-administration. Liver and spleen were collected in pre-weighed tubes, weights determined, immediately snap frozen in liquid nitrogen and stored at −80° C. until processing for analysis.
# For liver, approximately 50 mg was dissected for analyses in a 2 mL FastPrep tubes (MP Biomedicals, Solon OH). […] ceramic sphere (MP Biomedicals) is added to each tube and 500 μL of Glo Lysis Buffer—GLB (Promega, Madison WI) equilibrated to room temperature is added to liver tissue. Liver tissues were homogenized with the FastPrep24 instrument (MP Biomedicals) at 2×6.0 m/s for 15 seconds. Homogenate was incubated at room temperature for 5 minutes prior to a 1:4 dilution in GLB and assessed using SteadyGlo Luciferase assay system (Promega). Specifically, 50 μL of diluted tissue homogenate was reacted with 50 μL of SteadyGlo substrate, shaken for 10 seconds followed by 5 minute incubation and then quantitated using a CentroXS^3 LB 960 luminometer (Berthold Technologies, Germany). The amount of protein assayed was determined by using the BCA protein assay kit (Pierce, Rockford IL). Relative luminescence units (RLU) were then normalized to total μg protein assayed. To convert RLU to ng luciferase a standard curve was generated with QuantiLum Recombinant Luciferase (Promega).
# The FLuc mRNA (L-6107 or L-7202) from Trilink Biotechnologies will express a luciferase protein, originally isolated from the firefly, photinus pyralis. FLuc is commonly used in mammalian cell culture to measure both gene expression and cell viability. It emits bioluminescence in the presence of the substrate, luciferin. This capped and poly-adenylated mRNA was fully substituted with respect to uridine and/or cytidine nucleosides.
# as §1, with “2.” for “2. The activity was compared at a dose of 1.0 or 0.5 or 0.3 mg mRNA/kg and expressed as ng luciferase/g liver measured 4 hours after administration, as described in Example 1 or as μg IgG/mL serum measured 24 hours after administration, as described in Example 2.”
# [2] = Determination of pKa of formulated lipids (TNS fluorescence assay in lipid nanoparticles); format: physicochemical; settings: cationic lipid formulated in LNP (cationic lipid/DSPC/cholesterol/PEG-lipid 47.5/10/40.7/1.8 mol %), pH of half-maximal fluorescence
# Procedure: As described elsewhere, the pKa of formulated cationic lipids is correlated with the effectiveness of LNPs for delivery of nucleic acids (see Jayaraman et al, Angewandte Chemie, International Edition (2012), 51(34), 8529-8533; Semple et al, Nature Biotechnology 28, 172-176 (2010)). The preferred range of pKa is ˜5 to ˜7. The pKa of each cationic lipid was determined in lipid nanoparticles using an assay based on fluorescence of 2-(p-toluidino)-6-napthalene sulfonic acid (TNS). Lipid nanoparticles comprising cationic lipid/DSPC/cholesterol/PEG-lipid (47.5/10/40.7/1.8 mol %) in PBS at a concentration of 0.4 mM total lipid were prepared using the in-line process as described in Example 1. TNS was prepared as a […] stock solution in distilled water. Vesicles were diluted to 24 μM lipid in 2 mL of buffered solutions containing, 10 mM HEPES, 10 mM MES, 10 mM ammonium acetate, 130 mM NaCl, where the pH ranged from 2.5 to 11. An aliquot of the TNS solution was added to give a final concentration of 1 μM and following vortex mixing fluorescence intensity was measured at room temperature in a SLM Aminco Series 2 Luminescence Spectrophotometer using excitation and emission wavelengths of 321 nm and 445 nm. A sigmoidal best fit analysis was applied to the fluorescence data and the pKa was measured as the pH giving rise to half-maximal fluorescence intensity.
pKa [2],Compound,Serum IgG @ 0.3 mg/kg (human IgG in mouse serum),Serum IgG @ 1.0 mg/kg (human IgG in mouse serum),Liver Luc @ 0.5 mg/kg (ng luc/g) [1],"Liver Luc, determined at 0.3 mg/kg (ng luc/g) ([1]; 0.3 mg mRNA/kg)","Liver Luc, determined at 1.0 mg/kg (ng luc/g) ([1]; 1.0 mg mRNA/kg)"
5.88,"CCCCCCCCCC(OC(=O)CCCCCCCN(CCO)CCCCCCCC(=O)OC(CCCCCCCCC)C(F)(F)C(F)(F)F)C(F)(F)C(F)(F)F (stereo not drawn) [Compound I-1, BIS(1,1,1,2,2-PENTAFLUORODODECAN-3-YL) 8,8′-((2-HYDROXYETHYL)AZANEDIYL)DIOCTANOATE]",–,–,1233 ± 305 ng luc/g,–,–
6.03,"CCCCCCCCCC(OC(=O)CCCCCN(CCCCO)CCCCCC(=O)OC(CCCCCCCCC)C(F)(F)C(F)(F)F)C(F)(F)C(F)(F)F (stereo not drawn) [Compound I-3, BIS(1,1,1,2,2-PENTAFLUORODODECAN-3-YL) 6,6′-((4-HYDROXYBUTYL)AZANEDIYL)DIHEXANOATE]",–,–,3633 ± 1416 ng luc/g,–,–
6.62,"CCCCCCCCCC(CC)OC(=O)CCCCCN(CCCCO)CCCCCC(=O)OC(CC)CCCCCCCCC (stereo not drawn) [I-3 analogue, reference compound]",–,–,462 ± 425 ng luc/g,–,–

# The next lines start with the compound.
Compound,pKa [2],Serum IgG @ 0.3 mg/kg (human IgG in mouse serum),Serum IgG @ 1.0 mg/kg (human IgG in mouse serum),Liver Luc @ 0.5 mg/kg (ng luc/g) [1],"Liver Luc, determined at 0.3 mg/kg (ng luc/g) ([1]; 0.3 mg mRNA/kg)","Liver Luc, determined at 1.0 mg/kg (ng luc/g) ([1]; 1.0 mg mRNA/kg)"
"CCCCCCCCCCN(CCCCCCCCCC)C(=O)C(F)CCCCCCN(C)CCCCCCC(F)C(=O)N(CCCCCCCCCC)CCCCCCCCCC (stereo not drawn) [Compound I-10, 8,8′-(METHYLAZANEDIYL)BIS(N,N-DIDECYL-2-FLUOROOCTANAMIDE)]",–,12.94 ± 2.03 µg/mL,142.26 ± 26.31 µg/mL,–,–,–
"CCCCCCCCCCN(CCCCCCCCCC)C(=O)C(F)CCCCCCN(CCCCCO)CCCCCCC(F)C(=O)N(CCCCCCCCCC)CCCCCCCCCC (stereo not drawn) [Compound I-9, 8,8′-((5-HYDROXYPENTYL)AZANEDIYL)BIS(N,N-DIDECYL-2-FLUOROOCTANAMIDE)]",–,24.36 ± 4.39 µg/mL,239.26 ± 39.80 µg/mL,–,–,–
"CCCCCCCCCC(OC(=O)CCCCCN(CCCCCO)CCCCCC(=O)OC(CCCCCCCCC)C(F)(F)C(F)(F)F)C(F)(F)C(F)(F)F (stereo not drawn) [Compound I-4, BIS(1,1,1,2,2-PENTAFLUORODODECAN-3-YL) 6,6′-((5-HYDROXYPENTYL)AZANEDIYL)DIHEXANOATE]",5.88,–,–,–,1336 ± 329 ng luc/g,14888 + 2009** ng luc/g
"CCCCCCCCCC(OC(=O)CCCCCN(CCCO)CCCCCC(=O)OC(CCCCCCCCC)C(F)(F)C(F)(F)F)C(F)(F)C(F)(F)F (stereo not drawn) [Compound I-2, BIS(1,1,1,2,2-PENTAFLUORODODECAN-3-YL) 6,6′-((3-HYDROXYPROPYL)AZANEDIYL)DIHEXANOATE]",5.92,–,–,511 ± 79 ng luc/g,–,–
